Measured values reported in ChEMBL document CHEMBL6134815, “Research progress of LpxC inhibitor on Gram-negative bacteria” (Eur J Med Chem, 2025).
Converted amounts (≈) assume the structure as drawn.

Key:
Klebsiella pneumoniae [1] = experiment: Antibacterial activity against Klebsiella pneumoniae A651 assessed as reduction in bacterial growth by CLSI protocol based Mueller Hinton broth assay; format: functional
Escherichia coli [2] = experiment: Antibacterial activity against Escherichia coli ATCC 25922 assessed as reduction in bacterial growth by CLSI protocol based Mueller Hinton broth assay; format: functional
Pseudomonas aeruginosa [3] = experiment: Antibacterial activity against Pseudomonas aeruginosa ATCC 27853 assessed as reduction in bacterial growth by CLSI protocol based Mueller Hinton broth assay; format: functional
Escherichia coli [4] = experiment: Antibacterial activity against Escherichia coli assessed as bacterial growth inhibition; format: functional
Pseudomonas aeruginosa [5] = experiment: Antibacterial activity against Pseudomonas aeruginosa assessed as bacterial growth inhibition; format: functional
Escherichia coli [6] = experiment: Antibacterial activity against Escherichia coli ATCC 25922 assessed as reduction in bacterial growth incubated for 18 hrs by broth micro-dilution method; format: functional
[7] = biological target: T1, UDP-3-O-acyl-N-acetylglucosamine deacetylase (Escherichia coli K-12, UniProt P0A725); experiment: Inhibition of Escherichia coli LpxC
T1 sequence (P0A725 whole entry): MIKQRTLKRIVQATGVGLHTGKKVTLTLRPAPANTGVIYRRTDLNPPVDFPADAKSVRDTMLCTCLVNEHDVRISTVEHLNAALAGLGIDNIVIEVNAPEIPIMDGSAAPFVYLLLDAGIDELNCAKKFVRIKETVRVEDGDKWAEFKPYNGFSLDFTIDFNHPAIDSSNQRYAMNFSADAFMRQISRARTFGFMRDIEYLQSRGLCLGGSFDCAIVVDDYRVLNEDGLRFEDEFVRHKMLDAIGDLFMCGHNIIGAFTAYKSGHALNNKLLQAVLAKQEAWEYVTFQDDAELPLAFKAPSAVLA

[8] = biological target: T1, UDP-3-O-acyl-N-acetylglucosamine deacetylase; experiment: Binding affinity to Escherichia coli LpxC assessed as inhibition constant
Salmonella typhimurium = experiment: Antimicrobial activity against Salmonella enterica subsp. enterica serovar Typhimurium ATCC 14028 assessed as inhibition of bacterial growth measured for 24 hrs by standard broth microdilution method; format: functional
Pseudomonas aeruginosa [9] = experiment: Antibacterial activity against Pseudomonas aeruginosa ATCC 27853 assessed as reduction in bacterial growth incubated for 18 hrs by broth micro-dilution method; format: functional
Escherichia coli [10] = experiment: Antibacterial activity against Escherichia coli ATCC 25922 incubated for 24 hrs by CLSI based micro-dilution method; format: functional
[11] = Inhibition of Aquifex aeolicus LpxC
Haemophilus influenzae = experiment: Antibacterial activity against Haemophilus influenzae ATCC 49247 assessed as inhibition of microbial growth incubated for 18 hrs by micro-broth dilution method; format: functional
Morganella morganii = experiment: Antimicrobial activity against Morganella morganii ATCC 25830 assessed as inhibition of microbial growth incubated for 18 hrs by micro-broth dilution method; format: functional
Serratia marcescens = experiment: Antibacterial activity against Serratia marcescens assessed as inhibition of bacterial growth by Muller-Hinton broth based serial dilution method; format: functional
Escherichia coli [12] = experiment: Anti-microbial activity against Escherichia coli ATCC 25922 assessed as reduction in bacterial growth incubated for 24 hrs By CLSI based micro-dilution method; format: functional
Pseudomonas aeruginosa [13] = experiment: Antibacterial activity against Pseudomonas aeruginosa PAO1 assessed as reduction in bacterial growth incubated for 24 hrs By CLSI based micro-dilution method; format: functional
Escherichia coli [14] = experiment: Antibacterial activity against Escherichia coli ATCC 25922; format: functional
Klebsiella pneumoniae [15] = experiment: Antibacterial activity against Klebsiella pneumoniae ATCC 700603; format: functional
Pseudomonas aeruginosa [16] = experiment: Antibacterial activity against Pseudomonas aeruginosa PAO1; format: functional
Pseudomonas aeruginosa [17] = experiment: Antibacterial activity against Pseudomonas aeruginosa CMCC 10104 assessed as reduction in bacterial growth incubated for 22 hrs byMueller-Hinton Broth assay; format: functional
Escherichia coli [18] = experiment: Antibacterial activity against Escherichia coli CMCC 44568 assessed as reduction in bacterial growth incubated for 22 hrs byMueller-Hinton Broth assay; format: functional
Klebsiella pneumoniae [19] = experiment: Antibacterial activity against Klebsiella pneumoniae ATCC 43816 assessed as reduction in microbial growth incubated for 16 to 18 hrs by CLSI protocol based Muller Hinton broth assay; format: functional; settings: time 16-18 hrs
Pseudomonas aeruginosa [20] = experiment: Antibacterial activity against Pseudomonas aeruginosa ATCC 27853 assessed as reduction in bacterial growth by CLSI protocol based Muller Hinton broth assay; format: functional
Pseudomonas aeruginosa [21] = experiment: Antibacterial activity against Pseudomonas aeruginosa assessed as reduction in bacterial growth; format: functional
Yersinia enterocolitica = experiment: Antibacterial activity against Yersinia enterocolitica assessed as inhibition of bacterial growth incubated for 16 to 20 hrs by CLSI protocol based Muller Hinton broth assay; format: functional; settings: time 16-20 hrs
Escherichia coli [22] = experiment: Antibacterial activity against Escherichia coli ATCC 25922 assessed as reduction in bacterial growth; format: functional
[23] = biological target: T2, UDP-3-O-acyl-N-acetylglucosamine deacetylase (Pseudomonas aeruginosa (strain ATCC 15692 / PAO1 / 1C / PRS 101 / LMG12228), UniProt P47205); experiment: Inhibition of Pseudomonas aeruginosa LpxC
T2 sequence (P47205 whole entry): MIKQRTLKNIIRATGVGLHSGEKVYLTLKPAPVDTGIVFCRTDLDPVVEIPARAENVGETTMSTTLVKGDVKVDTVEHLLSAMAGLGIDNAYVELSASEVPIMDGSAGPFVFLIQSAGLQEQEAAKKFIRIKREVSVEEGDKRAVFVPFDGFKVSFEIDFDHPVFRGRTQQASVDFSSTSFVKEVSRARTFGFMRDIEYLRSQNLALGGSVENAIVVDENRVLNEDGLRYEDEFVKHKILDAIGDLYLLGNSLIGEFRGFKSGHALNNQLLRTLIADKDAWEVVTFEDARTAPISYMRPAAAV

[24] = Toxicity in CD-1 mouse assessed as effective dose; settings: in vivo
Klebsiella pneumoniae [25] = experiment: Antibacterial activity against Klebsiella pneumoniae ATCC 700603 assessed as inhibition of bacterial growth incubated for 18 hrs by broth micro-dilution method; format: functional
[26] = biological target: T2, UDP-3-O-acyl-N-acetylglucosamine deacetylase; experiment: Binding affinity to Pseudomonas aeruginosa LpxC assessed as inhibition constant
Escherichia coli [27] = experiment: Antimicrobial activity against Escherichia coli ATCC 25922 assessed as reduction in bacterial growth incubated for 18 hrs by micro-dilution method; format: functional

With `C[C@]1(CO)C[C@@H]1C#CC#Cc1ccc2c(=O)n(CC[C@](C)(C(=O)NO)S(C)(=O)=O)cnc2c1` as the molecule, how does the MIC (Klebsiella pneumoniae [1]) read?
Its MIC is 0.25 µg/mL (≈ 0.53 µM).

And the MIC (Escherichia coli [2])?
Its MIC is 0.063 µg/mL (≈ 0.134 µM).

What about the MIC (Pseudomonas aeruginosa [3]) of the same molecule?
The MIC was 1 µg/mL (≈ 2.12 µM).

For `CC(O)C(CP(=O)(O)O)NC(=O)c1ccc(C#Cc2ccc(CN3CCOCC3)cc2)cc1` (stereo not drawn), which MIC (Escherichia coli [4]) is on record?
Its MIC is 0.28 µg/mL (≈ 0.593 µM).

And the MIC (Pseudomonas aeruginosa [5])?
The MIC was 2.06 µg/mL (≈ 4.36 µM).

With `CCCc1cc(C2=NC(C(=O)NO)CO2)ccc1OC` (stereo not drawn) as the molecule, how does the MIC (Escherichia coli [6]) read?
Its MIC is 1 µg/mL (≈ 3.59 µM).

Which IC50 [7] does the source give for `O=C(CO/N=C/c1ccc(O)c(O)c1O)NC[C@H]1O[C@@H](n2ccc(=O)[nH]c2=O)[C@@H](O)[C@H]1O` here?
Its IC50 is 27000 nM.

Which MIC (Klebsiella pneumoniae [1]) does the source give for `C[C@@](CCN1Cc2cc(C#Cc3ccc([C@H]4C[C@@H]4CO)cc3)cn2C1=O)(C(=O)NO)S(C)(=O)=O` here?
Its MIC is 0.125 µg/mL (≈ 0.257 µM).

What about the MIC (Escherichia coli [2]) of the same molecule?
The MIC was 0.031 µg/mL (≈ 0.0638 µM).

And the MIC (Pseudomonas aeruginosa [3])?
Its MIC is 0.5 µg/mL (≈ 1.03 µM).

Which Ki [8] does the source give for `O=C(NO)[C@H]1O[C@@H](c2ccc(C#CC#Cc3ccccc3)cc2)[C@@H](O)[C@H]1O` here?
Its Ki is 4400 nM.

For `C[C@@H](O)[C@H](NC(=O)c1ccc(C#CC#Cc2ccccc2)cc1)C(=O)NO`, which MIC (Salmonella typhimurium) is on record?
The MIC was 0.024 µg/mL (≈ 0.0662 µM).

What about the MIC (Pseudomonas aeruginosa [9]) of the same molecule?
Its MIC is 0.74 µg/mL (≈ 2.04 µM).

What about the MIC (Escherichia coli [10]) of the same molecule?
Its MIC is 0.05 µg/mL (≈ 0.138 µM).

Which IC50 [7] does the source give for `CCCCCC(=O)O[C@@H]1[C@@H](CP(C)(=O)O)CO[C@H](CO)[C@H]1O` here?
The IC50 was 115000 nM.

And the IC50 [11]?
The IC50 was 192000 nM.

Which results are given for `O=C(NO)[C@@H](Cc1ccc2ccccc2c1)NS(=O)(=O)c1ccc2cc(Br)ccc2c1`?
MIC (Haemophilus influenzae): 1 µg/mL; IC50 [7]: 400 nM; MIC (Morganella morganii): 1 µg/mL; MIC (Serratia marcescens): 1 µg/mL (≈ 2 µM)

With `CNC(=O)c1ccc(-c2ccc(NCc3oc(S(C)(=O)=O)cc(=O)c3O)cc2)cc1` as the molecule, how does the IC50 [7] read?
Its IC50 is 100 nM.

For `O=C(NO)[C@H]1O[C@@H](c2ccc(C#Cc3ccc(CN4CCOCC4)cc3)cc2)C[C@H]1O`, which Ki [8] is on record?
The Ki was 3500 nM.

What about the MIC (Escherichia coli [12]) of the same molecule?
The MIC was 2 µg/mL (≈ 4.73 µM).

For `CS(=O)(=O)c1cc(=O)c(O)c(CNc2ccc(-c3ccc(N4CCOCC4)cc3)cc2)o1`, which IC50 [7] is on record?
The IC50 was 100 nM.

For `O=C(NO)[C@@H](OCc1ccc(C#Cc2ccc(CN3CCOCC3)cc2)cc1)[C@@H](O)COCc1ccccc1`, which MIC (Escherichia coli [12]) is on record?
Its MIC is 0.125 µg/mL (≈ 0.236 µM).

For `CC(O)C#CC#Cc1ccc(C2=NO[C@@H](C[C@](C)(C(=O)NO)S(C)(=O)=O)C2)cc1` (stereo partly drawn), which MIC (Pseudomonas aeruginosa [13]) is on record?
The MIC was 0.06 µg/mL (≈ 0.143 µM).

Which MIC (Escherichia coli [14]) does the source give for `COC[C@@H]1C[C@H]1C#CC#Cc1ccc(C(=O)N[C@H](C(=O)NO)C(C)(C)N)cc1` here?
The MIC was 0.12 µg/mL (≈ 0.313 µM).

What about the MIC (Klebsiella pneumoniae [15]) of the same molecule?
Its MIC is 0.5 µg/mL (≈ 1.3 µM).

What about the MIC (Pseudomonas aeruginosa [16]) of the same molecule?
Its MIC is 0.5 µg/mL (≈ 1.3 µM).

Which MIC (Pseudomonas aeruginosa [17]) does the source give for `N=C(N)N/N=C/c1ccc(C#CC#Cc2ccccc2Cl)cc1` here?
The MIC was 4 µg/mL (≈ 12.5 µM).

And the MIC (Escherichia coli [18])?
The MIC was 8 µg/mL (≈ 24.9 µM).

For `CC(C)(N)[C@H](NC(=O)c1ccc(C#CC#C[C@@H]2C[C@H]2CO)cc1)C(=O)NO` [ACHN-975], which MIC (Klebsiella pneumoniae [19]) is on record?
The MIC was 0.5 µg/mL.

And the MIC (Pseudomonas aeruginosa [20])?
Its MIC is 0.25 µg/mL (≈ 0.677 µM).

And the MIC (Pseudomonas aeruginosa [21])?
The MIC was no more than 1 µg/mL.

And the MIC (Yersinia enterocolitica)?
The MIC was 2 µg/mL (≈ 5.41 µM).

What about the MIC (Escherichia coli [22]) of the same molecule?
The MIC was 0.125 µg/mL (≈ 0.338 µM).

Which MIC (Pseudomonas aeruginosa [17]) does the source give for `N=C(N)N/N=C/c1ccc(C#CC#Cc2ccc(Cl)cc2)cc1` here?
The MIC was 1 µg/mL (≈ 3.12 µM).

And the MIC (Escherichia coli [18])?
Its MIC is 2 µg/mL (≈ 6.23 µM).

Which IC50 [23] does the source give for `O=C(NO)C1(NCc2ccc(-c3ccc(Cl)cc3F)c(F)c2)CCS(=O)(=O)CC1` here?
Its IC50 is 0.2 nM.

And the MIC (Pseudomonas aeruginosa [13])?
The MIC was 0.25 µg/mL (≈ 0.562 µM).

Which results are given for `C[C@@](O)(C(F)F)[C@H](NC(=O)c1ccc(C#CC#CC2CC2)cc1)C(=O)NO`?
ED50 [24]: 7.2 mg/kg/day; MIC90 (Klebsiella pneumoniae [25]): 0.125 µg/mL (≈ 0.332 µM); Ki [26]: 0.0089 nM; MIC90 (Escherichia coli [27]): 0.5 µg/mL (≈ 1.33 µM)

Which MIC (Haemophilus influenzae) does the source give for `O=C(NO)[C@@H](Cc1ccc2ccccc2c1)NS(=O)(=O)c1ccc2ccccc2c1` here?
Its MIC is 1 µg/mL.

And the IC50 [7]?
The IC50 was 160 nM.

What about the MIC (Morganella morganii) of the same molecule?
Its MIC is 1 µg/mL.

And the MIC (Serratia marcescens)?
Its MIC is 1 µg/mL (≈ 2.38 µM).
